{
  "source": "paper PMC11555678",
  "about": "“Improved Broad Spectrum Antifungal Drug Synergies with Cryptomycin, a Cdc50-Inspired Antifungal Peptide” (ACS Infectious Diseases, 2024)",
  "key": {"C. neoformans MRL862": {"test_system": "C. neoformans MRL862", "conditions": "cited from earlier work", "procedure": "First, the MICs of the peptides and commonly used antifungal drugs were assessed on their own. A full accounting of MICs of intermediate SAR screen peptides is reported in Supporting Information, Table S1."}, "[1]": {"test_system": "C. neoformans H99 and cdc50Δ", "test": "Intracellular calcium measurement (Fluo-3AM, flow cytometry)", "type": "cell-based, Cryptococcus neoformans", "conditions": "YPD, remained elevated for the 60 min time course", "procedure": "Intracellular calcium measurement was carried out in accordance with previously reported methodologies.[35] Yeast cells were sub cultured ON in YPD, and the next day cells were washed twice in D-Hanks (0.4 g/Liter KCl, 0.06 g/Liter KH2PO4, 8.0 g/Liter NaCl, 0.35 g/Liter NaHCO3, 0.06 g/Liter Na2HPO4·7H2O) and adjusted to 1 × 10^7 cfu/mL in 5 mL D-Hanks. Fluo-3-AM stock solution in DMSO was diluted 1000-fold to operating stain concentration of 10 μM. Cells were stained in the dark for 30 min at 37 °C, 225 rpm, in a 12 mL culture tube. Stained cells were washed three times in D-Hanks and resuspended into a minimal amount of YPD or calcium-enriched YPD required to inoculate each condition. Each condition was prepared with three technical replicates. After inoculating 1 mL YPD with 0.2 mL cell suspension, 0.2 mL was aliquoted into a flow tube for the 0 min time point. The flow tube was placed on ice until flow analysis. […] To allow for sample processing for each time point, each set of replicates was inoculated and treated about 2 min apart. Subsequent 0.2 mL aliquots were drawn at 12, 24, 36, and 60 min for flow analysis. Live cells were analyzed using BD FACS via 100,000 events were collected, and singlets were gated for each sample. The mean fluorescence of the singlets was recorded and plotted as a function of […]."}, "[2]": {"test_system": "C. neoformans in macrophage J774 cells", "test": "Macrophage killing assay", "type": "cell-based, Cryptococcus neoformans / murine macrophage", "conditions": "yeast pretreated at sub-MIC for 30 min; 2 or 4 h coincubation", "procedure": "Macrophage killing assay was carried out in accordance with previously reported protocols.[23],[69] After the cell line was activated from −80 °C stock and passaged several times, the cells were washed and resuspended in fresh DMEM + FBS at 1 × 10^5 cell/mL. Each well in a 3 column by 6 row grid in a 48-well plate was charged with 0.5 mL of cell suspension, approximately 50,000 cell/well. Macrophages were grown ON at 37 °C in a tissue culture incubator and were further activated with LPS. Yeast cells were grown ON using standard conditions. Fungal cells were washed twice with H2O, resuspended in PBS, and adjusted to 2.4 × 10^6 cfu/mL in 5 mL RPMI. […] Treated cells were transferred to a 1.5 mL Eppendorf tube, pelleted, and resuspended in 100 μL of 20% mouse compliment in PBS for opsonization. Prior to inoculating the wells with yeast cells for coincubation, the opsonized cells were diluted by an additional 20% with PBS. Each well was inoculated with 10 μL of cell suspension. Cocultures were prepared using three technical replicates. The 48-well plates were inoculated about 30 min apart to allow time to process each plate during the experiment. After 2 h of coincubation, each well was washed three times with 200 μL of warm DMEM + penstrep. […]"}},
  "note": "Square brackets hold non-standard residues; d marks the D form. Peptide text beside a SMILES is read from it. * marks the point of attachment. Myristoyl = CCCCCCCCCCCCCC(=O)*; Orn = NCCC[C@H](N)C(=O)O",
  "data": [
    {"smiles": "OC(Cn1cncn1)(Cn1cncn1)c1ccc(F)cc1F", "note": "[FLC, fluconazole]", "values": [
      {"measurement": "MIC, reported value", "setting": "C. neoformans MRL862", "result": 128, "unit": "µg/mL"}
    ]},
    {"smiles": "CCCCCCCCCCCCCC(=O)N[C@@H](Cc1c[nH]c2ccccc12)C(=O)NCC(=O)NCC(=O)N[C@H](C(=O)N[C@@H](CCCN)C(=O)N[C@@H](CCCN)C(=O)N[C@@H](CC(N)=O)C(=O)N[C@@H](Cc1ccc(O)cc1)C(=O)N[C@@H](C)C(N)=O)[C@@H](C)CC", "note": "[KKOO-NH2] (Myristoyl-WGGI[Orn][Orn]NYA-NH2)", "values": [
      {"measurement": "time to difference in intracellular calcium signaling vs untreated cells", "setting": "[1]", "result": "≤ 12", "unit": "min"},
      {"measurement": "fungal proliferation inside macrophages vs untreated control", "setting": "[2]", "result": "No statistically significant difference"}
    ]}
  ]
}
